According to patent US4182887A, “3-Amino-4-phenyl-1H-pyrazolo[3,4-b]pyridines and salts thereof” (Boehringer Ingelheim GmbH, priority 1976, dated 1980):

Legend:
[1] = test system: thrombocyte aggregation in platelet-rich plasma; test: Determination of effect on platelet aggregation by the method of Born and Cross (collagen-induced thrombocyte aggregation); format: cell-based; conditions: 10 min, platelet-rich plasma of healthy human donors, 10 min incubation at 37° C., read-out: ED50 (dose leading to a 50% inhibition of aggregation compared with the control group)
Procedure: 1. Determination of effect on platelet aggregation by the method of Born and Cross, J. Physiol. 170, 397 (1964):
The thrombocyte aggregation was measured in the platelet-rich plasma of healthy human donors. The course of change of the optical density of the platelet suspension was measured and recorded photometrically after the addition of commercial collagen containing 1 mg of collagen fibrils per ml. From the angle of inclination of the density curve, the rate of aggregation was estimated (Vmax). The optical density (O.D.) was taken as the point on the curve where the most light was transmitted.
As small doses of collagen as possible were chosen, but sufficient to give irreversible aggregation. To provoke maximum aggregation, about 0.01 ml of the collagen solution was added to 1 ml of platelet-rich plasma.
The test compounds were incubated at 37° C. for 10 minutes with the plasma before aggregation was provoked. The compounds were dissolved with a small quantity of hydrochloric acid or dimethyl formamide, and the solution was diluted to the desired final concentration with distilled water.
The dose leading to a 50% inhibition of aggregation compared with the control group (E D50) was determined.

[2] = Acute toxicity in white mice after oral application of a single dose; format: in vivo; conditions: mouse, in vivo, observation time 14 days
Procedure: (§1) The acute toxicity of the compounds was determined in white mice (observation time: 14 days) after oral application of a single dose: […]

[3] = test system: white mice; test: as above; format: in vivo; conditions: observation time 14 days, at the dose given in the same line
Procedure: as §1

| Compound | IC50 [1] [nM] | LD50 at 336 h [2] [mg/kg] | animals died (mortality in acute toxicity test) [3] |
| --- | --- | --- | --- |
| Nc1n[nH]c2nc(N3CCOCC3)cc(-c3ccccc3)c12 [A, 3-Amino-6-morpholino-4-phenyl-1H-pyrazolo[3,4-b]pyridine] | 1000 | > 250 | 0 out of 10 |
| Nc1n[nH]c2nc(N3CCSCC3)cc(-c3ccccc3)c12 [B, 3-Amino-4-phenyl-6-thiomorpholino-1H-pyrazolo[3,4-b]pyridine] | 40 | > 250 | 0 out of 10 |
| Nc1n[nH]c2nc(N3CCCCC3)cc(-c3ccccc3)c12 [C, 3-Amino-4-phenyl-6-piperidino-1H-pyrazolo[3,4-b]pyridine] | 400 | > 250 | 0 out of 10 |
| Nc1n[nH]c2nc(N3CCCCCC3)cc(-c3ccccc3)c12 [Compound E, 3-Amino-6-hexamethyleneimino-4-phenyl-1H-pyrazolo[3,4-b]pyridine] | 40 | > 5000 | 3 out of 10 |
| CC1CCCN(c2cc(-c3ccccc3)c3c(N)n[nH]c3n2)C1 (stereo not shown) [D, 3-Amino-6-(3-methyl-piperidino)-4-phenyl-1H-pyrazolo[3,4-b]pyridine] | 300 | > 250 | 0 out of 10 |
| CCN(CC)c1cc(-c2ccccc2)c2c(N)n[nH]c2n1 [F, 3-Amino-6-diethylamino-4-phenyl-1H-pyrazolo[3,4-b]pyridine] | 300 | > 1500 | 0 out of 10 |
| COc1ccc(-c2cc(N3CCCCC3)nc3[nH]nc(N)c23)cc1 [G, 3-Amino-4-(4'-methoxy-phenyl)-6-piperidino-1H-pyrazolo [3,4-b]pyridine] | 1000 | > 1500 | 0 out of 10 |
| Nc1n[nH]c2nc(N3CCCCCC3)cc(-c3ccc(F)cc3)c12 [H, 3-Amino-4-(4'-fluoro-phenyl)-6-hexamethyleneimino-1H-pyrazolo[3,4-b]pyridine] | 300 | – | – |
| Nc1cc(-c2ccccc2)c2c(N)n[nH]c2n1 [I, 3,6-Diamino-4-phenyl-1H-pyrazolo[3,4-b]pyridine, reference compound] | 100000 | > 1500 | 0 out of 10 |
